Results reported in patent US20230139171A1 (SITA Information Networking Computing UK Limited, priority 2019, published 2023).

Key:
Assay type in all cases: cell-based
human TLR8 = biological target: T1, human TLR8 (Homo sapiens, UniProt Q9NR97); test: TLR8 inhibition reporter assay (HEK-Blue cells, SEAP reporter, R848 stimulation); details: HEK-Blue cells overexpressing human TLR8, SEAP reporter, R848 15.9 μM; read-out: TLR8 IC50
T1 construct: host or cells: HEK-Blue cells
T1 sequence (Q9NR97 27-1041): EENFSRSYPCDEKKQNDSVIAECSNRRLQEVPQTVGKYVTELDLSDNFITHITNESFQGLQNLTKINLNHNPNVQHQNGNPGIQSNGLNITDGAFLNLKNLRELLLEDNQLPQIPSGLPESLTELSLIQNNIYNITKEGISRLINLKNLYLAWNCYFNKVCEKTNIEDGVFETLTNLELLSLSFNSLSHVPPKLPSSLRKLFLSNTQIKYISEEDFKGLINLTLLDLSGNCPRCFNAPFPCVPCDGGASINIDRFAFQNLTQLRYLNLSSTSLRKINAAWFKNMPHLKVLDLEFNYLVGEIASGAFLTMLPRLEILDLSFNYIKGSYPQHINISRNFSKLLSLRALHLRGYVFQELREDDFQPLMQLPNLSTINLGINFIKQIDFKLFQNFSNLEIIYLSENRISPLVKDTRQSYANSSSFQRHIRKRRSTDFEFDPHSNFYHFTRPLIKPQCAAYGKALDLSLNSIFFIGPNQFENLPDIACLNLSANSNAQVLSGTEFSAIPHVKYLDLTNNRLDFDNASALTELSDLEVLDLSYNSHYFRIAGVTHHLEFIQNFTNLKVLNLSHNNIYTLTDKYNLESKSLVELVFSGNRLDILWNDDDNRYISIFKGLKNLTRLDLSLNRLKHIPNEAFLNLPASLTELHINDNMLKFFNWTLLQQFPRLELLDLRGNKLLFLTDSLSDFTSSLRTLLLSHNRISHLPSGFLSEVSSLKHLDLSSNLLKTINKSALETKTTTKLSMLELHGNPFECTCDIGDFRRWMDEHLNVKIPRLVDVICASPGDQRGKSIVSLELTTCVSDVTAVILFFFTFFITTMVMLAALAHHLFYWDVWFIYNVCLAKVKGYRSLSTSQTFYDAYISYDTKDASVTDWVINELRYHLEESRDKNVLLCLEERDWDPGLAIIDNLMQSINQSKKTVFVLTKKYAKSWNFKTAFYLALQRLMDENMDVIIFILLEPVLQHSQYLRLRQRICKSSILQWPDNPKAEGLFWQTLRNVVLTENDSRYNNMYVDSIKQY
In short: (§1)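 Dose–response from 0.05 nM to 50 μM was run in HEK-Blue human TLR7, TLR8 and TLR9 reporter cells. After 30 min at room temperature with compound, ligand was added (TLR7 gardiquimod 7.5 μM; TLR8 R848 15.9 μM; TLR9 ODN2006 5 nM) and SEAP measured next day, at 22 h.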

human TLR7 = biological target: T2, human TLR7 (Homo sapiens, UniProt Q9NYK1); test: TLR7 inhibition reporter assay (HEK-Blue cells, SEAP reporter, gardiquimod stimulation); details: HEK-Blue cells overexpressing human TLR7, SEAP reporter, gardiquimod 7.5 μM; read-out: TLR7 IC50
T2 construct: host or cells: HEK-Blue cells
T2 sequence (Q9NYK1 27-1049): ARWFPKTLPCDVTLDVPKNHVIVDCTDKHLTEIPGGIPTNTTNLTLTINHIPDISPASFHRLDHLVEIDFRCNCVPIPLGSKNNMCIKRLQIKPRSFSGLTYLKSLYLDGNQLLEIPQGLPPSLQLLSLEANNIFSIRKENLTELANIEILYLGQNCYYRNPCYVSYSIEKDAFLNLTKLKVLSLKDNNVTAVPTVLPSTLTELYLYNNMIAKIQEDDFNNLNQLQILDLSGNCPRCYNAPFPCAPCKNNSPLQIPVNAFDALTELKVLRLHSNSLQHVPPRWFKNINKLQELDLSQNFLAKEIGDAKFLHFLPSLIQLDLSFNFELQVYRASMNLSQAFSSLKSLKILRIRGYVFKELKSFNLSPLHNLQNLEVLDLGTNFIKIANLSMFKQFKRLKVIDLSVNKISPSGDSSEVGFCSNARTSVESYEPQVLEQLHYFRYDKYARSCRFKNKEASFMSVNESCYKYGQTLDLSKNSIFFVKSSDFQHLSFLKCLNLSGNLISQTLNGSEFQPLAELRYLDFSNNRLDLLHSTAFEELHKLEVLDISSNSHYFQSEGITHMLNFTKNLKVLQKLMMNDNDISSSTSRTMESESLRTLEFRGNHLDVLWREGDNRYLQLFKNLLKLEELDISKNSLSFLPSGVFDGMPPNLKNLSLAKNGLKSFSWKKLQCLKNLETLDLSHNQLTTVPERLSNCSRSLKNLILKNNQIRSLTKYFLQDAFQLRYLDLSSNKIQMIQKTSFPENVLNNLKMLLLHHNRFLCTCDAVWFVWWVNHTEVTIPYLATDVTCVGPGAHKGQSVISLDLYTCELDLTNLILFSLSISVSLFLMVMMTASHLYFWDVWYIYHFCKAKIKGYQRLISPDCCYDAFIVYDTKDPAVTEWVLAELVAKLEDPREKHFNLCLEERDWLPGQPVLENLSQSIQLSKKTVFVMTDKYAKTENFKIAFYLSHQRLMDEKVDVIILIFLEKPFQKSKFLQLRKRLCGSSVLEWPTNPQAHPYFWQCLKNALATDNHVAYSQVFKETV
In short: as §1

human TLR9 = biological target: T3, human TLR9 (Homo sapiens, UniProt Q9NR96); test: TLR9 inhibition reporter assay (HEK-Blue cells, SEAP reporter, ODN2006 stimulation); details: HEK-Blue cells overexpressing human TLR9, SEAP reporter, ODN2006 5 nM
T3 construct: host or cells: HEK-Blue cells
T3 sequence (Q9NR96 26-1032): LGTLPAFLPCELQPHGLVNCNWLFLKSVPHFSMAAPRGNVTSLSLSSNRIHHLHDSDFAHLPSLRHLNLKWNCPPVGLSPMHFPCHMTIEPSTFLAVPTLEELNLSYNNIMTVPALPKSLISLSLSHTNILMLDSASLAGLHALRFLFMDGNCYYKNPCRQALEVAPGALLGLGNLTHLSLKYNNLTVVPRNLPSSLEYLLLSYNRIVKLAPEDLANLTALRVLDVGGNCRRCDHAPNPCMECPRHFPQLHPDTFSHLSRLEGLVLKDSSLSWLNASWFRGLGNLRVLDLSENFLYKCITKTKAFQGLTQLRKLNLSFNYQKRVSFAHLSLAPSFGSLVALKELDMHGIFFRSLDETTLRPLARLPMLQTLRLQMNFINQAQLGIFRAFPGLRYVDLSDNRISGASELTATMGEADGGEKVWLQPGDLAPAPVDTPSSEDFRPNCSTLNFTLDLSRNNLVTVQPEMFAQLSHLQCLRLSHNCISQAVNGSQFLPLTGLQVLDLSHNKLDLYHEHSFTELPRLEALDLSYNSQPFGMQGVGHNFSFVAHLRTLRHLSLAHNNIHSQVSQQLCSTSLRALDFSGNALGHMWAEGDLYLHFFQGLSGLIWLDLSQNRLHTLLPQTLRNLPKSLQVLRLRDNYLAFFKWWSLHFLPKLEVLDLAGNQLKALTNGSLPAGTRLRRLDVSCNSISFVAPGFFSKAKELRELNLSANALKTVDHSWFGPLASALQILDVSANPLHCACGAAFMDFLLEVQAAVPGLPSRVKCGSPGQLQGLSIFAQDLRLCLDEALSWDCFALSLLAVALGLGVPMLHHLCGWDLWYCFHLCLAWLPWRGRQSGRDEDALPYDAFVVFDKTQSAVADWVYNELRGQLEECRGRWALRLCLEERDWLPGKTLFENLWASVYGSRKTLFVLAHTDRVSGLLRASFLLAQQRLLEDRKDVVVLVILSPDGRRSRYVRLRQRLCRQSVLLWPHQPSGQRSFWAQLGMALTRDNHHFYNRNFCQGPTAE
In short: as §1

Structure (SMILES) | IC50 (human TLR8) [nM] | IC50 (human TLR7) [nM] | IC50 (human TLR9) [nM]
Cc1c(-c2[nH]c3sc(C4CCC(NCC(C)(C)O)CC4)nc3c2C(C)C)cn2ncnc2c1C (single isomer, unassigned) [Example 196, 1-((4-(5-(7,8-dimethyl-[1,2,4]triazolo[1,5-a]pyridin-6-yl)-6-isopropyl-4H-pyrrolo[3,2-d]thiazol-2-yl)cyclohexyl)amino)-2-methylpropan-2-ol] | 0.17 | 1.13 | 12700
Cc1cc2ncnn2cc1-c1[nH]c2sc(C3CCC(N4CCNC(=O)C4)CC3)nc2c1C(C)C (single isomer, unassigned) [Example 148, 4-(4-(6-isopropyl-5-(7-methyl-[1,2,4]triazolo[1,5-a]pyridin-6-yl)-4H-pyrrolo[3,2-d]thiazol-2-yl)cyclohexyl)piperazin-2-one] | 9.93 | 11.8 | > 50000
Cc1cc2ncnn2cc1-c1[nH]c2sc(C3CCC(N(C)C(C)C)CC3)nc2c1C(C)C (single isomer, unassigned) [Example 159, N-isopropyl-4-(6-isopropyl-5-(7-methyl-[1,2,4]triazolo[1,5-a]pyridin-6-yl)-4H-pyrrolo[3,2-d]thiazol-2-yl)-N-methylcyclohexan-1-amine] | 4.78 | 8.79 | 6870
Cc1cc(-c2[nH]c3sc(C4CCN(CC(=O)N(C)C)CC4)nc3c2C(C)C)cn2ncnc12 [Example 17, 2-(4-(6-isopropyl-5-(8-methyl-[1,2,4]triazolo[1,5-a]pyridin-6-yl)-4H-pyrrolo[3,2-d]thiazol-2-yl)piperidin-1-yl)-N,N-dimethylacetamide] | 8.27 | 8.08 | 3430
CC(C)c1c(-c2cn(C)c3ncccc23)[nH]c2sc(C3CCN(C(C)C)CC3)nc12 [Example 36, 6-isopropyl-2-(1-isopropylpiperidin-4-yl)-5-(1-methyl-1H-pyrrolo[2,3-b]pyridin-3-yl)-4H-pyrrolo[3,2-d]thiazole] | 1540 | 1300 | 25200
COc1cc(-c2[nH]c3sc(C(=O)NCCN(C)C)nc3c2C(C)C)cn2ncnc12 [Example 388, N-(2-(dimethylamino)ethyl)-6-isopropyl-5-(8-methoxy-[1,2,4]triazolo[1,5-a]pyridin-6-yl)-4H-pyrrolo[3,2-d]thiazole-2-carboxamide] | 37.4 | 22.4 | 16100

Further molecules by falling IC50 (human TLR8), results first:

IC50 (human TLR8) [nM] | IC50 (human TLR7) [nM] | IC50 (human TLR9) [nM] | Structure (SMILES)
215 | 77.5 | 37700 | Cc1c(-c2[nH]c3sc(CNCC4(S(C)(=O)=O)CC4)nc3c2C(C)C)cn2ncnc2c1C [Example 405, 1-(5-(7,8-dimethyl-[1,2,4]triazolo[1,5-a]pyridin-6-yl)-6-isopropyl-4H-pyrrolo[3,2-d]thiazol-2-yl)-N-((1-(methylsulfonyl)cyclopropyl)methyl)methanamine]
13.8 | 23.5 | > 50000 | Cc1c(-c2[nH]c3sc(C4CCC(N5CCNC(=O)C5)CC4)nc3c2C(C)C)cn(C)c(=O)c1C (single isomer, unassigned) [Example 259, 4-(4-(6-isopropyl-5-(1,4,5-trimethyl-6-oxo-1,6-dihydropyridin-3-yl)-4H-pyrrolo[3,2-d]thiazol-2-yl)cyclohexyl)piperazin-2-one]
3.01 | 4.7 | 23000 | Cc1c(-c2[nH]c3sc(C4CCC(NC(C)C)CC4)nc3c2C(C)C)cn(C)c(=O)c1C (single isomer, unassigned) [Example 253, 5-(6-isopropyl-2-(4-(isopropylamino)cyclohexyl)-4H-pyrrolo[3,2-d]thiazol-5-yl)-1,3,4-trimethylpyridin-2(1H)-one]
0.63 | 0.56 | 9030 | Cc1c(-c2[nH]c3sc(C4CCC(N5CC(O)C5)CC4)nc3c2C(C)C)cn2ncnc2c1C (single isomer, unassigned) [Example 224, 1-(4-(5-(7,8-dimethyl-[1,2,4]triazolo[1,5-a]pyridin-6-yl)-6-isopropyl-4H-pyrrolo[3,2-d]thiazol-2-yl)cyclohexyl)azetidin-3-ol]
